Measurements as given in patent US12485134B2, “Use of nicotinamide riboside, nicotinic acid riboside, reduced nicotinyl riboside compounds, and nicotinyl riboside compound derivatives in formulations” (ChromaDex Inc., priority 2019, dated 2025).

Assays:
[1] = Stability of NR-Cl in whey protein isolate solutions (% nicotinamide degradant, vs control of NR-Cl in water only); format: physicochemical; details: for increase in nicotinamide: after 1 day at refrigerated conditions
Method: (§1) A. Solutions of hydrolyzed whey protein isolate (>90% protein, 2-7% degree of hydrolysis) were prepared at varying concentrations and filtered through 0.2 μm sterile filters. An aliquot of sterile nicotinamide riboside chloride (“NR-Cl,” a salt of NR, I) in water solution was spiked into the sterile whey solutions, targeting a final NR-Cl concentration of 1 mmol per liter (0.3 mg/mL). The solutions containing the mixture of hydrolyzed whey and NR-Cl were filtered through 10 kDa molecular weight cutoff centrifuge filters to remove the whey proteins (14-80 kDa) and any NR-Cl that was bound to the proteins. Any NR-Cl that was not bound to the whey proteins was recovered in the filtrate and quantitated by HPLC.
The solutions of hydrolyzed whey protein isolate and NR-Cl were stored at ambient and refrigerated conditions and analyzed at various timepoints for NR-Cl protein binding and stability.
(§2) A study measuring the stability of NR-Cl in hydrolyzed and non-hydrolyzed whey protein was conducted with 2 mmol/L NR-Cl (0.6 mg/mL) and 20 mg/mL protein (33.3:1 wt:wt protein:NR-Cl). […] (See Table 5).

Albumin = Albumin (Bos taurus, UniProt P02769); assay: NR-Cl binding to individual whey proteins (cutoff filter method); details: 1 mmol/L each of protein and NR-Cl
Chain of Albumin (P02769 25-607): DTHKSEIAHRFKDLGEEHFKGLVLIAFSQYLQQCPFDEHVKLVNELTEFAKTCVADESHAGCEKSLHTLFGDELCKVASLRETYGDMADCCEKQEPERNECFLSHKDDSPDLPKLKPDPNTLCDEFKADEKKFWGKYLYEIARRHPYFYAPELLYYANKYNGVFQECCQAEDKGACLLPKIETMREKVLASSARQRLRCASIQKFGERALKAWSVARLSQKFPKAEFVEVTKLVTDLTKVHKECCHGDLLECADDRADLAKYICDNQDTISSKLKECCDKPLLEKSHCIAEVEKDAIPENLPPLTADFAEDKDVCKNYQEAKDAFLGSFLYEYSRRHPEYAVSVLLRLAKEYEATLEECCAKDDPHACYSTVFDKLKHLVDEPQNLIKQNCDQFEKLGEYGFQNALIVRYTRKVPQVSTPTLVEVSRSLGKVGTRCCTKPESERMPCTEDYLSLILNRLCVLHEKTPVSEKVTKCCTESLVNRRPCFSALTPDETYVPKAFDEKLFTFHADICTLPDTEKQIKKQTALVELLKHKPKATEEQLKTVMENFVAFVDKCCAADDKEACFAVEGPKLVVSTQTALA
Method: as §1
(§3) The solutions were prepared with 1 mmol/L each of protein and NR-Cl. NR-Cl binding to one or more of these individual proteins could be responsible for the enhanced stability of NR-Cl seen in hydrolyzed whey protein isolate.

Alpha-lactalbumin = biological target: T1, Alpha-lactalbumin (Bos taurus, UniProt P00711); assay: as above; details: 1 mmol/L each of protein and NR-Cl
T1 sequence (P00711 20-142): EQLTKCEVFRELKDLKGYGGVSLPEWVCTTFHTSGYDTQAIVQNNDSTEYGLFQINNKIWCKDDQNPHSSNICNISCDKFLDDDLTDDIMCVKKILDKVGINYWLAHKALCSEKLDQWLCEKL
Method: as §1, §3

Beta-lactoglobulin = biological target: T2, Beta-lactoglobulin (Bos taurus, UniProt P02754); assay: as above; details: 1 mmol/L each of protein and NR-Cl
T2 sequence (P02754 17-178): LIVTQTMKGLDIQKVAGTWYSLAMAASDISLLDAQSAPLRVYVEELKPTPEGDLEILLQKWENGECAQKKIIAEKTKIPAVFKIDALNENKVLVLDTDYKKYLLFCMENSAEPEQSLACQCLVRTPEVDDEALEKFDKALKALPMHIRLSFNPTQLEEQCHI
Method: as §1, §3

Lactoferrin = Lactoferrin (Bos taurus, UniProt P24627); assay: as above; details: 1 mmol/L each of protein and NR-Cl
Chain of Lactoferrin (P24627 20-708): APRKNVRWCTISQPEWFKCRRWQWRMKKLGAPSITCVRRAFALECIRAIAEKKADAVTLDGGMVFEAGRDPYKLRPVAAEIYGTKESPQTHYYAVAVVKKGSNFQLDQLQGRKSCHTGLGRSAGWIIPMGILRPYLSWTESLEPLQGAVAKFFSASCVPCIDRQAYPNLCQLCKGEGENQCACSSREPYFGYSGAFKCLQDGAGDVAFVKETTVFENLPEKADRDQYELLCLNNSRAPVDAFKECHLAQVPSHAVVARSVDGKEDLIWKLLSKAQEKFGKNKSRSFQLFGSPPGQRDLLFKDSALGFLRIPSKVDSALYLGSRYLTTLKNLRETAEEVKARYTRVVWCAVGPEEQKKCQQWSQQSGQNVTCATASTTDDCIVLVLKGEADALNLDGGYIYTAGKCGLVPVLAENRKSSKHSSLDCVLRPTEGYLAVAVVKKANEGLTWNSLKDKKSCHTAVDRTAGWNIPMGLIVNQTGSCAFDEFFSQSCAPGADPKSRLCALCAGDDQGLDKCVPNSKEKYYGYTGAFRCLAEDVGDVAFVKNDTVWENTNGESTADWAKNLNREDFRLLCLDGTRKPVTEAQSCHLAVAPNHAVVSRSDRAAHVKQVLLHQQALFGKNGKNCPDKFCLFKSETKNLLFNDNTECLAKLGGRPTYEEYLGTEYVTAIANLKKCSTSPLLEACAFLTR
Method: as §1, §3

Transferrin = Transferrin (Bos taurus, UniProt Q29443); assay: as above; details: 1 mmol/L each of protein and NR-Cl
Chain of Transferrin (Q29443 20-704): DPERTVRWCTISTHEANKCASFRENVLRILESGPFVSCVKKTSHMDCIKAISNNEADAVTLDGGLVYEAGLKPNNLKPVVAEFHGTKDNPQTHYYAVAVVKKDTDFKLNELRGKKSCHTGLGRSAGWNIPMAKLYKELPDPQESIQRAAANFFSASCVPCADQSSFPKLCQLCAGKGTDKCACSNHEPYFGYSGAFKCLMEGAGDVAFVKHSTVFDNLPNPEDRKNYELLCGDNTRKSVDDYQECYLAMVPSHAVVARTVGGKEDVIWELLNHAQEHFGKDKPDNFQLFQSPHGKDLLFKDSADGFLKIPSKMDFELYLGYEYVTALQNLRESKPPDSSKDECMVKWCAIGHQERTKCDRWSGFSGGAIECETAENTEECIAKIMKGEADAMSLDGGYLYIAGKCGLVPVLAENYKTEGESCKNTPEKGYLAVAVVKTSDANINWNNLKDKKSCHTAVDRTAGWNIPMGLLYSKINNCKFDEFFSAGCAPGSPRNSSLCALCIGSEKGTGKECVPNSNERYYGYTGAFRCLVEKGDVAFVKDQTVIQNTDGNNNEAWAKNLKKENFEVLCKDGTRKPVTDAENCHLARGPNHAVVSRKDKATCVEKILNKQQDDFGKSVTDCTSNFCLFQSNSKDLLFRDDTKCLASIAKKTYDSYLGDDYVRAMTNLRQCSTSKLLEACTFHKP
Method: as §1, §3

[2] = tested on: non-hydrolyzed whey protein; assay: NR-Cl binding to non-hydrolyzed whey protein isolate (cutoff filter method); details: Non-Hydrolyzed Whey Protein Isolate 20 mg/mL, 2 mmol/L NR-Cl (33.3:1 wt:wt)
Method: as §1, §2

[3] = tested on: milk concentrate proteins; assay: WaterLOGSY NMR binding of NR-Cl; details: pH 7.0
Method: (§4) WaterLOGSY is a sensitive ligand-observed NMR experiment designed for the screening of protein ligands from a mixture of potential binders. […] The experiment relies on fast dissociation of bound ligands to carry into the free state magnetisation originating from irradiated water that has been transmitted via the protein complex.
(§5) NMR samples for WaterLOGSY were prepared as follows. Ligand-detect WaterLOGSY experiments were carried at 600 MHz with 5-mm cryoprobe and using 5-mm NMR tubes. Each NMR sample for WaterLOGSY contained ˜0.05 mg (˜0.35 mM), using unlabeled ligand NR-Cl (“NR”), in a NMR buffer containing ˜0.5 mL 90% H2O/10% ^2H2O at pH 7.0 with or without the milk and soy protein mix (compared to the WaterLOGSY of NR as a negative control). Protein was added as a powder with a minimal 15 to 50 μM concentration. Typically, the final NMR sample of protein-compound mixtures had >20-fold higher compound concentration of ligand compared to that of the protein. Denatured samples were prepared by simply heating (80° C. for 15-20 mins) the aqueous (5-10% ^2H2O) protein mixture (in absence of NR).
The NR only WaterLOGSY spectrum (FIG. 23) was the negative control to screen for any potential binding of NR-Cl to milk concentrate and soy isolate proteins as shown herein and discussed below.

soy isolate proteins = assay: WaterLOGSY NMR binding of NR-Cl; details: native vs denatured, pH 7.0
Method: as §4, §5

For `NC(=O)c1ccc[n+]([C@@H]2O[C@H](CO)[C@@H](O)[C@H]2O)c1.[Cl-]` [NR-Cl, nicotinamide riboside chloride], the “% Nicotinamide” value ([1]; Control (NR-Cl in water only), 0 days ambient) was 0.2%, the “% Nicotinamide” value ([1]; Control (NR-Cl in water only), 0 days refrigerated) was 0.2% and the “% Nicotinamide” value ([1]; Control (NR-Cl in water only), 3 days ambient) was 3.8%. The “% Nicotinamide” value ([1]; Control (NR-Cl in water only), 5 days ambient) was 4.8%, the “% Nicotinamide” value ([1]; Control (NR-Cl in water only), 7 days ambient) was 5.3% and the “% Nicotinamide” value ([1]; Control (NR-Cl in water only), 30 days refrigerated) was 2.3%. The “% Nicotinamide” value ([1]; Hydrolyzed Whey Protein Isolate 20 mg/mL, 2 mmol/L NR-Cl (33.3:1 wt:wt), 0 days refrigerated) was 0.1%, the “% Nicotinamide” value ([1]; Hydrolyzed Whey Protein Isolate 20 mg/mL, 2 mmol/L NR-Cl (33.3:1 wt:wt), 1 day refrigerated) was 0.1% and the “% Nicotinamide” value ([1]; Non-Hydrolyzed Whey Protein Isolate 20 mg/mL, 2 mmol/L NR-Cl (33.3:1 wt:wt), 0 days refrigerated) was 0.3%. For the same molecule, the “% Nicotinamide” value ([1]; Non-Hydrolyzed Whey Protein Isolate 20 mg/mL, 2 mmol/L NR-Cl (33.3:1 wt:wt), 1 day refrigerated) was 5.4%, the increase in nicotinamide ([1]; hydrolyzed whey solution) was “did not show any increase” and the “% Nicotinamide” value ([1]; hydrolyzed whey:NR-Cl 18.3:1 (wt:wt), 0 days ambient) was 0.1%. The “% Nicotinamide” value ([1]; hydrolyzed whey:NR-Cl 18.3:1 (wt:wt), 0 days refrigerated) was 0.1%, the “% Nicotinamide” value ([1]; hydrolyzed whey:NR-Cl 18.3:1 (wt:wt), 3 days ambient) was 2.2% and the “% Nicotinamide” value ([1]; hydrolyzed whey:NR-Cl 18.3:1 (wt:wt), 5 days ambient) was 3.3%. For the same molecule, the “% Nicotinamide” value ([1]; hydrolyzed whey:NR-Cl 18.3:1 (wt:wt), 7 days ambient) was 3.9%, the “% Nicotinamide” value ([1]; hydrolyzed whey:NR-Cl 18.3:1 (wt:wt), 30 days refrigerated) was 1.5% and the “% Nicotinamide” value ([1]; hydrolyzed whey:NR-Cl 37:1 (wt:wt), 0 days ambient) was 0.2%. For the same molecule, the “% Nicotinamide” value ([1]; hydrolyzed whey:NR-Cl 37:1 (wt:wt), 0 days refrigerated) was 0.2%, the “% Nicotinamide” value ([1]; hydrolyzed whey:NR-Cl 37:1 (wt:wt), 3 days ambient) was 2.1% and the “% Nicotinamide” value ([1]; hydrolyzed whey:NR-Cl 37:1 (wt:wt), 5 days ambient) was 3.1%. For the same molecule, the “% Nicotinamide” value ([1]; hydrolyzed whey:NR-Cl 37:1 (wt:wt), 7 days ambient) was 3.8%, the “% Nicotinamide” value ([1]; hydrolyzed whey:NR-Cl 37:1 (wt:wt), 30 days refrigerated) was 1.4% and the “% Nicotinamide” value ([1]; hydrolyzed whey:NR-Cl 73:1 (wt:wt), 0 days ambient) was 0.2%. The “% Nicotinamide” value ([1]; hydrolyzed whey:NR-Cl 73:1 (wt:wt), 0 days refrigerated) was 0.2%, the “% Nicotinamide” value ([1]; hydrolyzed whey:NR-Cl 73:1 (wt:wt), 3 days ambient) was 2.4% and the “% Nicotinamide” value ([1]; hydrolyzed whey:NR-Cl 73:1 (wt:wt), 5 days ambient) was 3.2%. For the same molecule, the “% Nicotinamide” value ([1]; hydrolyzed whey:NR-Cl 73:1 (wt:wt), 7 days ambient) was 4.2%, the “% Nicotinamide” value ([1]; hydrolyzed whey:NR-Cl 73:1 (wt:wt), 30 days refrigerated) was 1.6% and the “% Nicotinamide” value ([1]; hydrolyzed whey:NR-Cl 147:1 (wt:wt), 0 days ambient) was 0.3%. For the same molecule, the “% Nicotinamide” value ([1]; hydrolyzed whey:NR-Cl 147:1 (wt:wt), 3 days ambient) was 2.4%, the “% Nicotinamide” value ([1]; hydrolyzed whey:NR-Cl 147:1 (wt:wt), 5 days ambient) was 3.4% and the “% Nicotinamide” value ([1]; hydrolyzed whey:NR-Cl 147:1 (wt:wt), 7 days ambient) was 4.1%. For the same molecule, the “% Nicotinamide” value ([1]; hydrolyzed whey:NR-Cl 293:1 (wt:wt), 0 days ambient) was 0.6%, the “% Nicotinamide” value ([1]; hydrolyzed whey:NR-Cl 293:1 (wt:wt), 3 days ambient) was 2.8% and the “% Nicotinamide” value ([1]; hydrolyzed whey:NR-Cl 293:1 (wt:wt), 7 days ambient) was 4.4%. For the same molecule, the increase in nicotinamide ([1]; non-hydrolyzed whey solution) was 5%, the “% NR-Cl Bound to Protein” value (Albumin) was 47% and the “% NR-Cl Bound to Protein” value (Alpha-lactalbumin) was 62%. The “% NR-Cl Bound to Protein” value (Beta-lactoglobulin) was 66%, the “% NR-Cl Bound to Protein” value (Lactoferrin) was 28% and the “% NR-Cl Bound to Protein” value (Transferrin) was 15%. For the same molecule, the “% NR-Cl Bound to Protein” value ([2]; 0 days refrigerated) was 49%, the “% NR-Cl Bound to Protein” value ([2]; 1 day refrigerated) was 54% and the WaterLOGSY binding ([3]; denatured milk concentrate (80° C. for 15-20 mins)) was “decreased binding”. The WaterLOGSY binding ([3]; milk concentrate) was “evidence of positive binding” and the WaterLOGSY binding (soy isolate proteins) was “increase in binding with NR-Cl only after denaturation”.
